{"source": "patent US10166210B2", "about": "“Methods of subtyping CRC and their association with treatment of colon cancer patients with oxaliplatin” (NSABP Foundation, Inc., priority 2014, dated 2019)", "key": {"early-stage colon cancer": {"test_system": "early-stage colon cancer", "settings": "recent MOSAIC analysis; all stage II or high risk stage II patients; cited from earlier work"}, "[1]": {"test_system": "stage II and III colon adenocarcinoma", "settings": "oxaliplatin added to FU and LV; trials MOSAIC and C-07; cited from earlier work"}, "[2]": {"test_system": "stage II and III colon cancer, CRC subtypes", "assay": "C-07 discovery cohort: oxaliplatin benefit by CRC intrinsic subtype (CRC-SSP-72), Kaplan Meier analysis", "format": "in vivo, human", "from_the_text": "FIG. 3 Kaplan Meier Plots of each CRC subtype using our gene signature by CRC-SSP-72 according to treatment (FULV versus FOLFOX) using recurrence free survival (RFS) as the end point. Among identified CRC subtypes, only Enterocyte received significant benefit (HR=0.315, p=0.005).\nFIG. 4 Kaplan Meier Plots of the Enterocyte subtype and of all of the other subtypes (Goblet-like, Inflammatory, Stem-like and TA) combined into one group (Others) There is significant treatment-group interaction (p=0.012)\nWe have profiled 296 genes in 1840 patients using the nCounter Assay system (Nanostring Technologies, Seattle Wash.). Clinical data and nCounter data for the discovery dataset were merged and anonymized by the honest broker at the University of Pittsburgh as defined by standard operations under IRB approval of NSABP Biospecimen Bank and Biostatistics Center. We have developed a predictive algorithm to classify tumors into oxaliplatin benefit or no benefit group using discovery cohort of 848 patients without access to the data from the remaining 992 patients (validation cohort).\nFor C07, 2409 patients were enrolled in C-07 and all cases with tumor blocks, proper consent, clinical follow-up information and sufficient RNA yields were used in this study (N=1840). These cases were split into a discovery (N=848) and a validation (N=992) cohort (FIG. 1). […]"}}}
{"compound": "O=C1[O][Pt]2([NH][C@@H]3CCCC[C@H]3[NH]2)[O]C1=O", "note": "[oxaliplatin]", "values": [{"measurement": "benefit in stage II patients", "setting": "early-stage colon cancer", "value": "no statistically significant benefit"}, {"measurement": "disease free survival (DFS)", "setting": "[1]", "value": "significantly improved disease free survival"}, {"measurement": "recurrence free survival (RFS) HR", "setting": "[2]; Enterocyte subtype, FULV versus oxaliplatin arm, p=0.005", "value": 0.315}, {"measurement": "benefit from oxaliplatin by subtype", "setting": "[2]; enterocyte subtype versus TA, goblet, inflammatory and stem-like, treatment-group interaction p=0.012", "value": "only the enterocyte subtype received benefit"}]}
